Results from patent US20100312073A1, “METHOD OF […] […]” (priority 2008, published 2010).
Like-named read-outs stand apart in the source and are kept apart here.

Test system: DNIC efficiency (diffuse noxious inhibitory control)
Conditions: 60 mg once a day for one week, healthy volunteers
Source text: According to an exemplary testing procedure, the DNIC can be assessed as the difference of pain ratings to ‘test stimulus’ applied before and during the immersion of the contralateral hand into hot water bath (conditioning stimulus) as elaborated infra. Exemplary test stimulus of a 30 seconds period with contact heat, such as 30×30 mm^2 thermode TSA-2001 available from Medoc, can be delivered for instance on the non-dominant forearm at the individually-predetermined temperature that evoked pain intensity of 60 on a 0-100 NPS (more details in Granot et al., 2006). The stimulus temperature can be raised by 2° C./sec from 32° C. to the destination temperature. Fifteen minutes after the completion the first pre-immersion test, the patient is asked to immerse his/her dominant hand for 1′ into the water bath of 46.5° C. (Neto Cooling Bath CBN 8-30, Allerod, Denemark), while second application of the ‘test stimulus’ is repeated during last 30 seconds of immersion. […]
DNIC paradigm, tested at baseline and after each of the treatments, consisted of administration of two painful stimuli, a test-pain delivered by contact heat, and a ‘conditioning’ pain induced by hot water immersion of the other hand. The DNIC efficiency was calculated as the difference between pain perceptions induced by the test-pain when given alone, and when given concomitantly with the conditioning one.

For `CNCC[C@H](Oc1cccc2ccccc12)c1cccs1` [Duloxetine], the “Duloxetine treatment DNIC score” value (high pre-treatment DNIC group (pre-treatment DNIC score 32.50), NS vs. pre-treatment) was 29.26 and the “Duloxetine treatment DNIC score” value (low pre-treatment DNIC group (pre-treatment DNIC score 0.15), P<0.05 vs. pre-treatment (Tukey)) was 19.35.
